Assay results reported in ChEMBL document CHEMBL6120991, “Chromones Featuring a [6,6]-Spiroketal Moiety Produced by Coculture of the Endophytic Fungi Chaetomium virescens and Xylaria Grammica” (J Nat Prod, 2025).
Active and inactive are the calls of the source. The rule behind the calls is not given here.

Experiments:
SW620/AD300 [1] = assay: Cytotoxicity against multidrug resistant human SW620/AD300 cells assessed as inhibition of cell viability at 20 uM measured after 72 hrs in presence of paclitaxel by CCK-8 method relative to control; type: functional
SW620/AD300 [2] = assay: Inhibition of colony formation in human SW620/AD300 cells assessed as decrease in colony number at 1 uM incubated for 7 days by crystal violet staining based analysis; type: functional, cell-based; settings: time 7.0 day
SW620/AD300 [3] = assay: Cytotoxicity against multidrug resistant human SW620/AD300 cells assessed as inhibition of cell viability at 1 uM measured after 72 hrs by CCK-8 method relative to control; type: functional
SW620/AD300 [4] = assay: Inhibition of colony formation in human SW620/AD300 cells assessed as decrease in colony number at 20 uM incubated for 7 days by crystal violet staining based analysis; type: functional, cell-based; settings: time 7.0 day
SW620/AD300 [5] = assay: Reversal of multi-drug resistance in human SW620/AD300 cells assessed as decrease in frequency of cells in G0/G1 phase at 20 uM presence of 1 uM of paclitaxel incubated for 24 hrs by PI staining based flow cytometry analysis; type: functional, cell-based
SW620/AD300 [6] = assay: Reversal of multi-drug resistance in human SW620/AD300 cells assessed as decrease in colony number at 20 uM presence of 1 uM of paclitaxel incubated for 7 days by crystal violet staining based analysis; type: functional, cell-based; settings: time 7.0 day
[7] = molecular target: ATP-dependent translocase ABCB1 (Homo sapiens, UniProt P08183); assay: Induction of thermal stabilization of P-gp in multidrug resistant human SW620/AD300 cells at 20 uM incubated for 30 mins by CESTA analysis; type: cell-based; settings: sw620/ad300, 0.5 h
SW620/AD300 [8] = assay: Reversal of multi-drug resistance in human SW620/AD300 cells assessed as increase in frequency of cells in G2/M phase at 20 uM presence of 1 uM of paclitaxel incubated for 24 hrs by PI staining based flow cytometry analysis; type: functional, cell-based
SW620/AD300 [9] = assay: Reversal of multi-drug resistance in human SW620/AD300 cells assessed as decrease in colony number at 20 uM presence of 0.25 uM of paclitaxel incubated for 7 days by crystal violet staining based analysis; type: functional, cell-based; settings: time 7.0 day

ATP-dependent translocase ABCB1, sequence (P08183 whole entry): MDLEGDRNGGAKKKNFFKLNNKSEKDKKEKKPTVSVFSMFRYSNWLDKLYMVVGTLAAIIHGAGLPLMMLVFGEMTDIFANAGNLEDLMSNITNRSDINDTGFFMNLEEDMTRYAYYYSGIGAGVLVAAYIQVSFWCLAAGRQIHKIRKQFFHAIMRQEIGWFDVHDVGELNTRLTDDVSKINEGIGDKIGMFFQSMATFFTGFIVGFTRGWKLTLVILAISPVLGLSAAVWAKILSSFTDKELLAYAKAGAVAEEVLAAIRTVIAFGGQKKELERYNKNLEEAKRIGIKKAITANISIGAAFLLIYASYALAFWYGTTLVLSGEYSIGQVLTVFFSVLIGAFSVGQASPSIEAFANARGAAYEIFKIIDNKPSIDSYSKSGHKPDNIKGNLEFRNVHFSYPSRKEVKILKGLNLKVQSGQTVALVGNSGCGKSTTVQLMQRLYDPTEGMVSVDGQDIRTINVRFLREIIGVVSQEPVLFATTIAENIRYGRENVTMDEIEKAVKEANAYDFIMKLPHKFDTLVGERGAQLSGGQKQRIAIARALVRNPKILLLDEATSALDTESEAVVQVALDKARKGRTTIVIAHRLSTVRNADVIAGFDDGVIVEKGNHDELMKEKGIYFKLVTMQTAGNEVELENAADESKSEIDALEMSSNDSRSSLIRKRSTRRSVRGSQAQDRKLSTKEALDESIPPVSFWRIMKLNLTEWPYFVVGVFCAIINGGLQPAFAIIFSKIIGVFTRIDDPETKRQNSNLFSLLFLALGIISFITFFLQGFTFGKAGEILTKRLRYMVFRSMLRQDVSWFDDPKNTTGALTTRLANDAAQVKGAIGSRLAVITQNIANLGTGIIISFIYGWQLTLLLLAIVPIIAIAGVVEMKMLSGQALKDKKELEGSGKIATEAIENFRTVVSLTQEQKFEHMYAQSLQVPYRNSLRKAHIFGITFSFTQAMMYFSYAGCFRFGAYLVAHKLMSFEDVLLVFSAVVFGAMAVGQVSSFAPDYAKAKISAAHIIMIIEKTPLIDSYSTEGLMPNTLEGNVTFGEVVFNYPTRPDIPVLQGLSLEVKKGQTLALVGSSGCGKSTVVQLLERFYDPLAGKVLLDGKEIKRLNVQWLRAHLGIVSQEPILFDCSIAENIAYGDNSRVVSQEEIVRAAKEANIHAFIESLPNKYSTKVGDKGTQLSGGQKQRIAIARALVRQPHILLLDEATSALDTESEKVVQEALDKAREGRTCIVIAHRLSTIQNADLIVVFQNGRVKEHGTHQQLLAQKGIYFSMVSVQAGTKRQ

Compound	inhibition at 20 µM (SW620/AD300 [1]) [%]	also measured
COc1cc2oc(C)cc(=O)c2c2c1C[C@H](C)[C@@]1(O2)O[C@@H](C)CCC1=O	24.5	
COc1cc2oc(C)cc(=O)c2c2c1C[C@H](C)[C@@]1(O2)O[C@@H](C)C[C@H](O)[C@@H]1O	22	
CC(=O)O[C@H]1C(=O)[C@@]2(C)[C@H]([C@H](OC(=O)c3ccccc3)[C@]3(O)C[C@H](OC(=O)[C@H](O)[C@@H](NC(=O)c4ccccc4)c4ccccc4)C(C)=C1C3(C)C)[C@]1(OC(C)=O)CO[C@@H]1C[C@@H]2O [PACLITAXEL]		inhibition (SW620/AD300 [2]): inactive; inhibition at 1 µM (SW620/AD300 [3]): 1.1%
COc1cc2oc(CO)cc(=O)c2c2c1C[C@H](C)[C@@]1(O2)O[C@@H](C)C[C@H](O)[C@@H]1O	15.3	
COc1cc2oc(C)cc(=O)c2c2c1C[C@@H](C)[C@@]1(O2)O[C@@H](C)C[C@H](O)[C@@H]1O	19.6	
COc1cc2oc(C)cc(=O)c2c2c1C[C@@H](C)[C@@]1(C[C@H](OC)C[C@H](C)O1)O2	77.8	inhibition (SW620/AD300 [4]): inactive; Activity (SW620/AD300 [5]): Active; Activity (SW620/AD300 [6]): Active; Activity [7]: Active; Activity (SW620/AD300 [8]): Active; Activity (SW620/AD300 [9]): Active
COc1cc2oc(C)cc(=O)c2c2c1C[C@@H](C)[C@@]1(C[C@@H](O)C[C@H](C)O1)O2	10	
COc1cc2oc(C)cc(=O)c2c2c1C[C@H](C)[C@@]1(C[C@H](OC)C[C@H](C)O1)O2	29.2	
COc1cc2oc(C)cc(=O)c2c2c1CC(C)C1(O2)OC(C)CC(O)C1O (stereo not given)	11.1	
COc1cc2oc(CO)cc(=O)c2c2c1C[C@@H](C)[C@@]1(O2)O[C@@H](C)C[C@H](O)[C@@H]1O	11.2	
COc1cc2oc(C)cc(=O)c2c2c1C[C@@H](C)[C@@]1(C[C@H](O)C[C@H](C)O1)O2	0.2	
COc1cc2oc(C)cc(=O)c2c2c1CC[C@@]1(O2)O[C@@H](C)C[C@H](O)[C@@H]1O	3.1	
COc1cc2oc(CO)cc(=O)c2c2c1C[C@@H](C)[C@@]1(C[C@@H](NCC/C(C)=C/C(=O)O)C[C@H](C)O1)O2	46.4	
